Data as given in patent US20220370380A1, “EXERCISE-INDUCED HEMOLYSIS SUPPRESSANT AND COMPOSITION FOR SUPPRESSING/IMPROVING EXERCISE-INDUCED HEMOLYTIC ANEMIA” (AstaReal Co., Ltd., priority 2019, published 2022).
Where two headings read alike, the source gives them in different places.

Experiments:
[1] = test system: men's medium- and long-distance runners; test: Confirmation test for antioxidant capacity (serum total antioxidant capacity); format: in vivo, human; conditions: test period Week 0 to Week 8; astaxanthin group versus control group
Procedure: In order to confirm the antioxidant capacity in the “astaxanthin group” of Example 1, the concentrations of water-soluble antioxidants contained in the serum of the subjects of the “astaxanthin group” and the “control group” were measured during the “test period” of Weeks 0 to 8 through the “acclimatization period (Weeks 0 to 4)” and the “observation period (Weeks 4 to 8)” of Example 1. The period of the confirmation test was set to the “test period” of Weeks 0 to 8 through the “acclimatization period (Weeks 0 to 4)” and the “observation period (Weeks 4 to 8)” because there was no causal relationship of the antioxidant capacity with whether running training was performed in the highlands or flatlands.
Specifically, this test was performed as follows. The blood samples were collected from the subjects of the “astaxanthin group” and the “control group” at Week 0 (start date of test food intake), Week 4, and Week 8 (last day of test food intake), to measure the concentrations of water-soluble antioxidants in serum and measure the total antioxidant capacity. Thereafter, the average was calculated, and the transition of the average of the total antioxidant capacity from Week 0 to Week 8 in each of the “astaxanthin group” and the “control group” thus calculated was observed. […]

[2] = literature: Takahashi et al. 2004; cited from earlier work
ordinary people = test: Changes in number of erythrocytes and hemoglobin content of ordinary people (FIG. 3); format: in vivo, human; conditions: between before and after taking the test food
[3] = cited from earlier work
[4] = test system: men's medium- and long-distance runners; test: Confirmation test for suppression of exercise-induced hemolysis using astaxanthin; format: in vivo, human; conditions: compared with control group
Procedure: A confirmation test to confirm whether or not exercise-induced hemolysis that causes exercise-induced hemolytic anemia can be suppressed by orally taking a test food containing astaxanthin by a subject was conducted as follows.
Two types of test foods, a “capsules for astaxanthin group” containing a Haematococcus algae-derived pigment and a “capsules for control group” not containing the Haematococcus algae-derived pigment were prepared. Further, twenty-eight men's medium- and long-distance runners aged from 18 to 22 belonging to the athletic club of Tokai University as subjects were divided into two groups. Thirteen subjects were designated as the “astaxanthin group”, and fifteen subjects were designated as the “control group”. […]
Specifically, running training in the highlands was first conducted for 4 weeks, setting the period of running training in the highlands as “acclimatization period (Weeks 0 to 4)”, then blood samples were collected from the subjects of the “astaxanthin group” and the “control group”, to measure the number of erythrocytes (red blood cells), the hemoglobin content (amount of blood pigment; hemoglobin concentration), and the serum haptoglobin concentration. […] This test was conducted by observing the rate of change in the number of erythrocytes, the rate of change in the hemoglobin content (hemoglobin concentration), and the transition of the serum haptoglobin concentration from the start date to the end date of the observation period in each of the “astaxanthin group” and the “control group” thus measured. […]
The blood samples collected from the subjects of the “astaxanthin group” and the “control group” were treated with EDTA-2K to measure the number of erythrocytes using the sheath flow electrical resistance detection method. […] On the other hand, the collected blood samples were transferred to a tube containing EDTA-2Na and centrifuged to separate the plasma fraction, to measure the serum haptoglobin concentration using an ELISA kit for haptoglobin quantification (Quantikine Human Haptoglobin ELISA Kit (product code: DHAPGO), available from R&D Systems, Inc.). […]

[5] = test system: men's medium- and long-distance runners; test: Confirmation test for suppression of hemolysis due to oxidative damage (urinary 8-OHdG and isoprostane production rate); format: in vivo, human
Description: In order to confirm whether or not hemolysis due to oxidative damage is suppressed in the “astaxanthin group” of Example 1 (whether or not oxidative damage to erythrocytes (red blood cells) is suppressed), the production rate of 8-OHdG and isoprostane contained in the urine of the subjects of the “astaxanthin group” and the “control group” was investigated during the “test period” of Weeks 0 to 8 through the “acclimatization period (Weeks 0 to 4)” and the “observation period (Weeks 4 to 8)” of Example 1. The period of the confirmation test was set to the “test period” of Weeks 0 to 8 through the “acclimatization period (Weeks 0 to 4)” and the “observation period (Weeks 4 to 8)” because there was no causal relationship of whether or not hemolysis occurred due to oxidative damage with whether running training was performed in the highlands or flatlands.
Specifically, this test was performed as follows. Urine was collected from the subjects of the “astaxanthin group” and the “control group” at Week 0 (start date of test food intake), Week 4, and Week 8 (last day of test food intake), and the production rate of 8-OHdG and the production rate of isoprostane were measured. Thereafter, their averages were calculated, and then the transitions of the averages of the production rate of 8-OHdG and the production rate of isoprostane from Week 0 to Week 8 in each of the “astaxanthin group” and the “control group” thus calculated were observed.
The 8-OHdG concentration in the urine collected from the subjects of the “astaxanthin group” and the “control group” was measured using a New 8-OHdG Check ELISA (ELISA kit for 8-OHdG (product code: KOG-2005/E), available from NIKKEN SEIL Co., Ltd.) by an ELISA method. The production rate of 8-OHdG per body weight and time was calculated by the formula shown below.
Production rate of 8-OHdG (ng/kg/hr)={8-OHdG concentration in urine (ng/mL)×volume of urine collected (mL)}/{elapsed time since the last urination (h)×body weight of subject (kg)}
The isoprostane concentration in the urine collected from the subjects of the “astaxanthin group” and the “control group” was measured using a urinary isoprostane measurement ELISA kit (8-iso-PGF2a ELISA kit (product code: ADI-900-010), available from Enzo Life Sciences) by an ELISA method. The production rate of isoprostane per body weight and time was calculated by the formula shown below.
Production rate of isoprostane (ng/kg/hr)={isoprostane concentration in urine (ng/mL)×volume of urine collected (mL)}/{elapsed time since the last urination (h)×body weight of subject (kg)} […]

CC1=C(/C=C/C(C)=C/C=C/C(C)=C/C=C/C=C(C)/C=C/C=C(C)/C=C/C2=C(C)C(=O)C(O)CC2(C)C)C(C)(C)CC(O)C1=O (stereo not drawn) [astaxanthin, 3,3′-dihydroxy-β,β-carotene-4,4′-dione]
average of measured values of the total antioxidant capacity (serum) [1]: no significant difference | mutagenicity [2]: no mutagenicity observed | hemoglobin content (hemoglobin concentration) (ordinary people): no significant difference | number of erythrocytes (ordinary people): no significant difference | antioxidant activity relative to vitamin E [3]: 1000 times | antioxidant activity relative to vitamin E ([3]; listed as Astaxanthin): about 1,000 times | antioxidant activity relative to β-carotene ([3]; relative to β-carotene): about 40 times | rate of change in the number of erythrocytes during the observation period ([4]; astaxanthin 12 mg/day oral (free form), observation period Weeks 4 to 8, running training in flatlands): high | serum haptoglobin concentration on the start date of the observation period ([4]; astaxanthin 12 mg/day oral, Week 4): almost no difference | serum haptoglobin concentration on the end date of the observation period ([4]; astaxanthin 12 mg/day oral, Week 8): extremely high | rate of change in the hemoglobin content (hemoglobin concentration) during the observation period ([4]; astaxanthin 12 mg/day oral, observation period Weeks 4 to 8, running training in flatlands): also high | average of measured values of the production rate of isoprostane (urine) ([5]; Week 0, astaxanthin group compared with control group): low | average of measured values of the production rate of isoprostane (urine) ([5]; Week 4 and Week 8, astaxanthin group versus control group): no difference observed | average production rate (urine marker), comparison between before and after taking the test food ([5]; after intake compared with before intake (Week 0), within astaxanthin group): increased after intake | average of measured values of the production rate of 8-OHdG (urine) ([5]; test period Week 0 to Week 8, astaxanthin group versus control group): no significant difference
